Data: patent US6218163A, “Stable biocatalysts for ester hydrolysis” (Thermogen, Inc., priority 1996, dated 2001)

Columns and labels:
Format in all cases: biochemical
[1] = tested on: Thermus sp. T351 esterase E100; experiment: Inhibition by reaction components on the hydrolysis of p-nitrophenylproprionate by E100
Procedure: Measurement of E100 Enzyme Activity--Esterase activity is measured by monitoring the hydrolysis of p-nitrophenylproprionate (pNP), or in some cases MUB. Each substrate is dissolved in acetonitrile and added to the reaction mixture (100 μM final concentration) which contain 50 mM Tris HCl pH 8.5 adjusted for temperature dependent pH variation. Reactions are thermally equilibrated at 37° C. for 5 minutes prior to initiation of the reaction by addition of 10 μL of enzyme sample, while control reactions substituted equivalent amounts of BSA. The reaction is monitored spectrophotometrically at 405 nm ε=17 mM^-1 cm^-1 for pNP and 360 nm ε=7.9 mM^-1 cm^-1 for MUB.
The rates of enzyme catalyzed hydrolysis are corrected for the spontaneous hydrolysis of the substrate. Protein concentrations are determined by either the absorbance at 280 nm or by Lowery assay. Crude activity is determined by a colorimetric assay based on the hydrolysis of 5-bromo-4-chloro-3-indoyl esters suspended in a 0.7% agar matrix on microtiter plates. A 0.1 mg/ml solution of the indolyl derivative is dissolved in a minimal volume of acetonitrile and added to a warm solution of 0.7% agar containing 0.1M phosphate buffer pH 7.5. 10 μL of this solution is distributed to microtiter plates which, when cooled, could be used with as much as 100 μL of enzyme sample and incubated at temperatures from ambient to >65° C.

[2] = tested on: Thermus sp. T351 esterase E101
[3] = tested on: Thermus sp. T351 esterase E100; experiment: Kinetic analysis of E100: concentration-dependent initial rates of nitrophenyl proprionate hydrolysis; conditions: p-NP as substrate, pH 8.5, 50 mM Tris-HCl, 37° C.
Procedure: FIG. 6. Kinetic analysis of E100.
Determination of Kinetic Characteristics--Kinetic characteristics are determined by measuring the concentration dependent initial rates of enzyme catalyzed hydrolysis of nitrophenyl proprionate. Reactions are run at pH 8.5 in 50 mM Tris-HCl buffer equilibrated to 37° C. and initiated by addition of enzyme. Rates are determined from the absorbance changes due to formation of product nitrophenol at 405 nm. Rates are corrected for the spontaneous hydrolysis of substrate during the course of the reaction. Concentration vs. rate data are analyzed by both double reciprocal plots and by HanesWolff plots to determine Km, Vmax and Vmax/Km.

With `O=S(=O)(F)Cc1ccccc1` [PMSF] the “Relative Rate” value ([1]; additive 0.1 mM, None = 100, substrate p-nitrophenylproprionate) was 0% and the “Inhibition of E101 (in words)” value [2] was “inhibited”.
In the case of `OCCS` [BME, β-mercaptoethanol], the “Relative Rate” value ([1]; additive 10 mM, None = 100, substrate p-nitrophenylproprionate) is reported as 99%.
For `Cc1ccc(S(=O)(=O)F)cc1` [tosyl fluoride], the “Inhibition of E100 (in words)” value [1] was “effectively inhibited”.
For `CCC(=O)Oc1ccc([N+](=O)[O-])cc1` [p-NP, p-nitrophenylproprionate], the Vmax [3] was 1.8×10^-5 Mmin^-1 and the Km ([3]; Lineweaver-Burke and Eadie-Hofstee analysis) was 72 µM.
With `O=C(O)CN(CCN(CC(=O)O)CC(=O)O)CC(=O)O` [EDTA] the “Relative Rate” value ([1]; pH 8.5, 1000 µM) was 96.
